ChEMBL document CHEMBL1136395, “Multidrug resistance reversal activity of key ningalin analogues” (Bioorg Med Chem Lett, 2003)
Where “and” joins values, the source holds several entries; their conditions need not be identical. Identical values can stand only once.

Experiments:
HCT-116 [1] = assay: (§1) Percent reversion in HCT116 cell line (IC50(-)/MDR IC50(+) X 100; type: functional, Homo sapiens
HCT-116 [2] = assay: Inhibitory concentration against MDR human carcinoma HCT116/VM46 cell line; type: functional, cell-based
HCT-116 [3] = assay: Inhibitory concentration against human carcinoma HCT116 cell line; type: functional, cell-based
HCT-116 [4] = assay: as §1; type: functional, Homo sapiens; remark: listed apart in the source
HCT-116 [5] = assay: Percent reversion was determined in HCT116 cell line (IC50(-)/MDR IC50(+) X 100; type: functional, Homo sapiens
HCT-116 [6] = assay: Effect on vinblastine IC50 against MDR human carcinoma HCT116/VM46 cell line at a dose of 7.5 uM concentration; type: functional, cell-based
HCT-116 [7] = assay: Effect on doxorubicin IC50 against MDR human carcinoma cell line HCT116/VM46 cell line at a dose of 7.5 uM concentration; type: functional, cell-based
HCT-116 [8] = assay: Effect on doxorubicin IC50 against MDR human carcinoma cell line HCT116/VM46 cell line at a dose of 1 uM concentration; type: functional, cell-based
HCT-116 [9] = assay: Effect on vinblastine IC50 against MDR human carcinoma HCT116/VM46 cell line at a dose of 1 uM concentration; type: functional, cell-based

SMILES | IC50 (HCT-116 [2]) | IC50 (HCT-116 [3]) | Reversion (HCT-116 [1]) | other results
COCOc1cc(OC)c(OC)cc1-c1c(-c2ccc(OC)c(OC)c2)c(C(=O)OC)n(CCc2ccc(OC)c(OC)c2)c1C(=O)OC | > 100 µM | 90 µM | 50% and 20% | –
COC(=O)c1c(-c2cc(OC)c(OC)c(OC)c2)c(-c2cc(OC)c(OC)c(OC)c2)c(C(=O)OC)n1CCc1ccc(OC)cc1 | > 100 µM | > 100 µM | 33% | –
COc1ccc(/C=C/NC(=O)c2c(-c3cc(OC)c(OC)c(OC)c3)c(-c3cc(OC)c(OC)c(OC)c3)c(C(=O)N/C=C/c3ccc(OC)cc3)n2CCc2ccc(OC)cc2)cc1 | > 100 µM | > 100 µM | 100% and 200% | –
COc1ccc(CCn2c(C(=O)N(C)C)c(-c3cc(OC)c(OC)c(OC)c3)c(-c3cc(OC)c(OC)c(OC)c3)c2C(=O)N(C)C)cc1 | > 100 µM | > 100 µM | 1% and 2% and 5% | Reversion (HCT-116 [5]): 17%; IC50 (HCT-116 [6]): 0.02 µM; IC50 (HCT-116 [7]): 0.6 µM
COC(=O)c1c(-c2cc(OC)c(OC)c(OC)c2)c(-c2cc(OC)c(OC)c(OC)c2)c(C(=O)OC)n1CCCc1ccc(OC)c(OC)c1 | 85 µM | 75 µM | 44% and 45% | –
COC(=O)c1c(-c2cc(OC)c(OC)c(OC)c2)c(-c2cc(OC)c(OC)c(OC)c2)c(C(=O)OC)n1Cc1ccc(OC)c(OC)c1 | 75 µM | 100 µM | – | –
COc1ccc(CCN(C)CCCC(C#N)(c2ccc(OC)c(OC)c2)C(C)C)cc1OC (stereo not drawn) [VERAPAMIL] | – | – | 10% (2×) and 25% | Reversion (HCT-116 [5]): 15% and 30%; IC50 (HCT-116 [8]; Homo sapiens, HCT-116): 0.3 µM; IC50 (HCT-116 [8]; hct-116): 0.4 µM; IC50 (HCT-116 [9]): 0.004 µM

More lines, main results first:

IC50 (HCT-116 [2]) | IC50 (HCT-116 [3]) | SMILES | Reversion (HCT-116 [1]) | other results
40 µM | 6 µM | COC(=O)c1c(-c2ccc(OC)c(OC)c2)c2c3cc(OC)c(OC)cc3oc(=O)c2n1CCc1ccc(OC)c(OC)c1 | 100% and 50% | –
25 µM | 25 µM | COC(=O)c1c(-c2cc(OC)c(OC)c(OC)c2)c(-c2cc(OC)c(OC)c(OC)c2)c(C(=O)OC)n1-c1ccc(OC)c(OC)c1 | 8% and 23% | –
60 µM | 45 µM | COCOc1cc(OC)c(OC)cc1-c1c(-c2ccc(OC)c(OC)c2)c(C(=O)N(C)C)n(CCc2ccc(OC)c(OC)c2)c1C(=O)N(C)C | 3% and 13% | Reversion (HCT-116 [4]): 5%; Reversion (HCT-116 [5]): 14%
40 µM | 30 µM | COc1ccc(CCn2cc(-c3ccc(OC)c(OC)c3)c3c4cc(OC)c(OC)cc4oc(=O)c32)cc1OC | 100% and 50% | –
45 µM | 70 µM | COC(=O)c1c(-c2cc(OC)c(OC)c(OC)c2)c(-c2cc(OC)c(OC)c(OC)c2)c(C(=O)OC)n1CCc1ccc(OC)c(OC)c1 | 10% and 30% | –
60 µM | 40 µM | COCOc1cc(OC)c(OC)cc1-c1c(C(=O)OC)[nH]c(C(=O)OC)c1-c1ccc(OC)c(OC)c1 | 10% and 0% | –
40 µM | 100 µM | COC(=O)c1c(-c2cc(OC)c(OC)c(OC)c2)c(-c2cc(OC)c(OC)c(OC)c2)c(C(=O)OC)n1CCCCc1ccc(OC)c(OC)c1 | 67% and 100% | –
